What was measured:
Experiment in all cases: Kinase panel study
Type in all cases: biochemical
Settings in all cases: read-out: Percentage of inhibition; for inhibition at 1 µM: 1000nM; for inhibition at 10 µM: 10000nM
STK22D (TSSK1) = target: T1, STK22D (TSSK1) (Homo sapiens, UniProt Q9BXA7)
T1 construct: purchased Thermo Fisher Scientific
T1 sequence (Q9BXA7 1-367): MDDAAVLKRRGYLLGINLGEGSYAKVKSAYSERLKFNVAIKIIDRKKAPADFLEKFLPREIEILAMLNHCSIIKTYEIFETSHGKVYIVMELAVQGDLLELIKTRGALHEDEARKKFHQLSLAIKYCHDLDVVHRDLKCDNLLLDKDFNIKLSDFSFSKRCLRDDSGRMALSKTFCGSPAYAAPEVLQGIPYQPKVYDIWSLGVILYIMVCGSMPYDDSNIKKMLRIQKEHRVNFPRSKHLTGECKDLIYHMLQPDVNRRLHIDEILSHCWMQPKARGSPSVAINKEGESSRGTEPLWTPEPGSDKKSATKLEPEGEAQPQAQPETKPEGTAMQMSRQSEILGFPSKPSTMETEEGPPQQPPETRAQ
Procedure, shortened: (§1)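 A commercial kinase profiling service ran the assays according to its ZLyte or Adapta standard protocols. Compound was present at 10 µM or 1 µM, and kinase activity loss was expressed as percent inhibition.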

EPHB1 = target: T2, EPHB1 (Homo sapiens, UniProt P54762)
T2 construct: purchased Thermo Fisher Scientific
T2 sequence (P54762 18-984): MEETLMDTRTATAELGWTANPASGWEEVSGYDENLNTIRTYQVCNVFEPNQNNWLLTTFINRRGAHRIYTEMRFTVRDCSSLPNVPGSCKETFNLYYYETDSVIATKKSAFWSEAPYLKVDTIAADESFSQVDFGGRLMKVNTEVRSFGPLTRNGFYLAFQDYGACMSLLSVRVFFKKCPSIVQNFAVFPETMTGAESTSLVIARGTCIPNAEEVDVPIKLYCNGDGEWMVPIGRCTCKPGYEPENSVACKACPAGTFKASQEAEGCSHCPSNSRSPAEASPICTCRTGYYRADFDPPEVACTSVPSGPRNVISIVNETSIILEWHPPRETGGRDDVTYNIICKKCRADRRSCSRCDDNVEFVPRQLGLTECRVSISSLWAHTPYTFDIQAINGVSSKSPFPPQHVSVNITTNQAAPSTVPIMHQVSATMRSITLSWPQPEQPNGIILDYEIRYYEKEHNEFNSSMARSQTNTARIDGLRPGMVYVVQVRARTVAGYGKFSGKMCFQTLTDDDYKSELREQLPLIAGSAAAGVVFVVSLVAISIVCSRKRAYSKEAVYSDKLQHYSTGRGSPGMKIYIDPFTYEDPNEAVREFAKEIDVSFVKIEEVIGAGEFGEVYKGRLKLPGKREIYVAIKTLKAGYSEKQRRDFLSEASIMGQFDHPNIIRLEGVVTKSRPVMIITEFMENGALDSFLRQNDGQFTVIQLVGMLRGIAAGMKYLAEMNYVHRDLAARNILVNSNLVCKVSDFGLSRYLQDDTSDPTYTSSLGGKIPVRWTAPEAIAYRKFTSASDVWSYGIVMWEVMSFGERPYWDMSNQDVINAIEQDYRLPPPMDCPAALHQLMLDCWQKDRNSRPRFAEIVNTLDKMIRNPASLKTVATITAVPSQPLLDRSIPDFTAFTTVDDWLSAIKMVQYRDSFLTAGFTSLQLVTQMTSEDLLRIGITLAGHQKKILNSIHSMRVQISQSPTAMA
Procedure, shortened: as §1

DYRK3 = target: T3, DYRK3 (Homo sapiens, UniProt O43781)
T3 construct: purchased Thermo Fisher Scientific
T3 sequence (O43781 1-588): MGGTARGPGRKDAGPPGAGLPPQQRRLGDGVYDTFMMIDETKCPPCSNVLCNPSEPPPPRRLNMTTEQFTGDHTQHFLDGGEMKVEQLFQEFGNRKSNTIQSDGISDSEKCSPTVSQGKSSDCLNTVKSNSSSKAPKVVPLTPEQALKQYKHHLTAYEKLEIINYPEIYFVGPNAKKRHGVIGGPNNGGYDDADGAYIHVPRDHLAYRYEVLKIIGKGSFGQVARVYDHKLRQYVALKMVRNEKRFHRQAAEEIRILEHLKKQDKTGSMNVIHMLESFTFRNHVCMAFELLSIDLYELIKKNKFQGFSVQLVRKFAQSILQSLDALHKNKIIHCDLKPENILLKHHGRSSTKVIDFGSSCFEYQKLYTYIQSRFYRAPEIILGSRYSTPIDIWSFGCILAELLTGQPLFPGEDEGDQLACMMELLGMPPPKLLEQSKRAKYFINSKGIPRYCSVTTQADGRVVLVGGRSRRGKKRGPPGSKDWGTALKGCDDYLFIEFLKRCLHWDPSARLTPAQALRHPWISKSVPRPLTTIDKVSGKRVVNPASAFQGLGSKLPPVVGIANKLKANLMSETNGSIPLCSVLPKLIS
Procedure, shortened: as §1

CDK1/cyclin B = target: T4, CDK1/cyclin B (Homo sapiens, UniProt P06493)
T4 construct: purchased Thermo Fisher Scientific
Procedure, shortened: as §1

ABL2 (Arg) = target: T5, ABL2 (Arg) (Homo sapiens, UniProt P42684)
T5 construct: purchased Thermo Fisher Scientific
Procedure, shortened: as §1

DAPK3 (ZIPK) = target: T6, DAPK3 (ZIPK) (Homo sapiens, UniProt O43293)
T6 construct: purchased Thermo Fisher Scientific
Procedure, shortened: as §1

T6 sequence (O43293 whole entry): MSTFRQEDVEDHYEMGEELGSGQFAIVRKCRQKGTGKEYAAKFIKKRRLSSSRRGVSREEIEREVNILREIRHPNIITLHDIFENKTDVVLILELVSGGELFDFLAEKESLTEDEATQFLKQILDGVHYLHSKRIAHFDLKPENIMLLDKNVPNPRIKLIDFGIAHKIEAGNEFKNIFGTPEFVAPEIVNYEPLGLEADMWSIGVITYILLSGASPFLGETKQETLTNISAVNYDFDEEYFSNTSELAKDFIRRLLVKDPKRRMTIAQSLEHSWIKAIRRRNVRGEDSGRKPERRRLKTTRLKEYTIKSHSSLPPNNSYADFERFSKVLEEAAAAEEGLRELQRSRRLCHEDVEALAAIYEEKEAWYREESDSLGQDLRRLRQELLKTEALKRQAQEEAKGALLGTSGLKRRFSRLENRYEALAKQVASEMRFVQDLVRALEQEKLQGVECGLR
T5 sequence (P42684 whole entry): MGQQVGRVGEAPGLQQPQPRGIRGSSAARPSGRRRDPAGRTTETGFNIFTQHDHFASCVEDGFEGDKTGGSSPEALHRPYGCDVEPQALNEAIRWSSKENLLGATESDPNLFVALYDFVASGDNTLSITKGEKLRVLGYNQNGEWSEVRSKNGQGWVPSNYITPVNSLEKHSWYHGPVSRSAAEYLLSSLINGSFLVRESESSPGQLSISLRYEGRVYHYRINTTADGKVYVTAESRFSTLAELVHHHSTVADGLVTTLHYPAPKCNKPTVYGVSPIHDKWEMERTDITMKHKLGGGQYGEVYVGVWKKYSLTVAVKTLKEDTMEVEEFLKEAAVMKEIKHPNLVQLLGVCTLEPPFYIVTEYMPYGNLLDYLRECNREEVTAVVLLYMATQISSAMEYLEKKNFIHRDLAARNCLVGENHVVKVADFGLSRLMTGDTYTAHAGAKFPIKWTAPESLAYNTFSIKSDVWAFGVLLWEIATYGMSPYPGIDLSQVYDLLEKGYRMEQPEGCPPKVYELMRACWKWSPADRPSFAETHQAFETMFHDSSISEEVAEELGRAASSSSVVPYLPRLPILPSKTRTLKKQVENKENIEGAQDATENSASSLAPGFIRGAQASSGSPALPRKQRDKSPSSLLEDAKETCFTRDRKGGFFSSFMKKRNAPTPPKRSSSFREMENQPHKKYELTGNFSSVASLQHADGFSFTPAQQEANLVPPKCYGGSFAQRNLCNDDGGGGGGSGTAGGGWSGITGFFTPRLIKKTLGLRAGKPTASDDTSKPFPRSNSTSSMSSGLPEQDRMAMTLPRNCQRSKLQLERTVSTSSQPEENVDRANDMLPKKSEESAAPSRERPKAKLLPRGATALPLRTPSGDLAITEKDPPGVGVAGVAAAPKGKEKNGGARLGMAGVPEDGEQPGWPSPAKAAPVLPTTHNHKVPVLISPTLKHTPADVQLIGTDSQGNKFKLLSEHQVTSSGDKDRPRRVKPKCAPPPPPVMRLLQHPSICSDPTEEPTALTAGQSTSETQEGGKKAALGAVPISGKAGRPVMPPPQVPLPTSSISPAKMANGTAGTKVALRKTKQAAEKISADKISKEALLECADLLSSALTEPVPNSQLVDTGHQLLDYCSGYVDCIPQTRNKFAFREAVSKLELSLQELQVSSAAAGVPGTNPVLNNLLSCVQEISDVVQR
T4 sequence (P06493 whole entry): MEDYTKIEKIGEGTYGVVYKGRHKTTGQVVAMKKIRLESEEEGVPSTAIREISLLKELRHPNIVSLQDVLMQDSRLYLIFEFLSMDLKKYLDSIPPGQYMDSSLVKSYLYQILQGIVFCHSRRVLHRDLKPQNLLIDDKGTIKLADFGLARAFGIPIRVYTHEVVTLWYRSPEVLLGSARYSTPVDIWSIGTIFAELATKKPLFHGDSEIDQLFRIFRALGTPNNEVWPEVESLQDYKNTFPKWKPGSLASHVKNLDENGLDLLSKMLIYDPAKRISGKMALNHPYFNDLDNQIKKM
T4 sequence (P14635 whole entry partner): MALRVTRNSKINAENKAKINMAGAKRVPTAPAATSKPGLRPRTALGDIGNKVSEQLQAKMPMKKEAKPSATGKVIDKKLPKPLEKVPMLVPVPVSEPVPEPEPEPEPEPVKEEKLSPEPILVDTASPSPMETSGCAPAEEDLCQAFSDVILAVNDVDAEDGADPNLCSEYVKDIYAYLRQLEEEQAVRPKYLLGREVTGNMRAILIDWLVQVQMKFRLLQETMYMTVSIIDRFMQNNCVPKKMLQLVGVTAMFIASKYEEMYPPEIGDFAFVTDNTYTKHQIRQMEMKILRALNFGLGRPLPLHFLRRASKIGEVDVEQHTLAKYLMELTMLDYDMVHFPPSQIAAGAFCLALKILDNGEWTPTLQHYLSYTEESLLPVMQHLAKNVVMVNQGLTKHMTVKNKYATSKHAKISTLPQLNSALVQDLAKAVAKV

Structure (SMILES) | inhibition at 1 µM (STK22D (TSSK1)) [%] | inhibition at 10 µM (STK22D (TSSK1)) [%] | inhibition at 1 µM (EPHB1) [%] | inhibition at 10 µM (EPHB1) [%] | inhibition at 1 µM (DYRK3) [%] | inhibition at 10 µM (DYRK3) [%] | inhibition at 1 µM (CDK1/cyclin B) [%] | inhibition at 10 µM (CDK1/cyclin B) [%] | inhibition at 1 µM (ABL2 (Arg)) [%] | inhibition at 10 µM (ABL2 (Arg)) [%] | inhibition at 1 µM (DAPK3 (ZIPK)) [%] | inhibition at 10 µM (DAPK3 (ZIPK)) [%]
COc1ccc2c(c1OC)c(=O)n1c3ccc(O)cc3c3ccnc2c31 [MW01, 5-Hydroxy-10,11-dimethoxy-9H-benzo[c]indolo[3,2,1-ij][1,5]naphthyridin-9-one] | 11 | 22 | -3 | 9 | 17 | 43 | 20 | 46 | 9 | 21 | 2 | 9
COc1ccc2cc3c(N)nn(C(=O)c4cccc(N(C)C)c4)c3nc2c1 [MW05, (3-Amino-7-methoxypyrazolo[3,4-b]quinolin-1-yl)-[3-(dimethylamino)phenyl]methanone] | 2 | 5 | -3 | -6 | 5 | 7 | 19 | 57 | 5 | 2 | 2 | -3
